Data set [1] concerns the target T1, human neurokinin-1 receptor (NK1R) (Homo sapiens, UniProt P25103).
T1 construct: expressed in transfected cells; host or cells: COS cells
Briefly: Displacement of 125I-substance P from human NK1R expressed in COS cells (Example 12). The class given is binding. The following applies: for IC50: 125I-substance P, COS cells (Example 12). As to the method:
The affinity of a variety of compounds for the substance P receptor was determined employing the following procedure.
To express the cloned human neurokinin-1 receptor (NK1R) transiently in COS, the cDNA for the human NK1R was cloned into the expression vector pCDM9 which was derived from pCDM8 (Invitrogen) by inserting the ampicillin resistance gene (nucleotide 1973 to 2964 from Bluescript SK+) into the Sac II site. Transfection of 20 μg of the plasmid DNA into 10 million COS cells was achieved by electroporation in 800 μl of the transfection buffer ([…], 1.2 mM MgCl2, 2.4 mM K2 HPO4, 0.6 mM KH2PO4, […], 10 mM HEPES pH 7.4) at 260 V and 950 μF using the IBI Genezapper (IBI, New Haven, Conn.). The cells were incubated in 10% fetal calf serum, 2 mM glutamine, 100 U/ml penicillin-streptomycin, and 90% DMEM media (Gibco, Grand Island, N.Y.) in 5% CO2 at 37° C. for three days before the binding assay.
The binding assay of human NK1R expressed in COS cells is based on the use of ^125 I-substance P (^125 I-SP, from DuPont, Boston, Mass.) as a radioactively labeled ligand which competes with unlabeled substance P or any other ligand for binding to the human NK1R. Monolayer cell cultures of COS were dissociated by the non-enzymatic solution (Specialty Media, Lavallette, N.J.) and resuspended in appropriate volume of the bind buffer (50 mM Tris pH 7.5, 5 mM MnCl2, 150 mM NaCl, 0.04 mg/ml bacitracin, 0.004 mg/ml leupeptin, 0.2 mg/ml BSA, 0.01 mM phosphoramidon) such that 200 μl of the cell suspension would give rise to about 10,000 cpm of specific ^125 I-SP binding (approximately 50,000 to 200,000 cells). In the binding assay, 200 μl of cells were added to a tube containing 20 μl of 1.5 to 2.5 nM of ^125 I-SP and 20 μl of unlabeled substance P or any other test compound. The tubes were incubated at 4° C. or at room temperature for 1 hour with gentle shaking. The bound radioactivity was separated from unbound radioactivity by GF/C filter (Brandel, Gaithersburg, Md.) which was pre-wetted with 0.1 polyethylenimine. The filter was washed with 3 ml of wash buffer (50 Tris pH 7.5, 5 mM MnCl2, 150 mM NaCl) three times and its radioactivity was determined by gamma counter.
A variety of compounds were tested according to the COS cell procedure. The concentration of compound required to inhibit the binding of substance P to the human neurokinin-1 receptor by 50% was measured.

For data set [2], the system named is SRIF receptors on AtT-20 cells. Briefly: Binding at SRIF receptors of AtT-20 cells (Examples 104-110, Tables 1-3). On the set-up: species or system mouse.
In data set [3] the test system is β2-adrenergic receptor. Briefly: Binding at the β2-adrenergic receptor. The conditions noted are these: among some sixty-five receptors.
The test system of data set [4] is some sixty-five other receptors. Briefly: Binding at some sixty-five other receptors.
The target in a further data set is hSSTR1 (Homo sapiens, UniProt P30872). Briefly: Binding at human SRIF receptor subtype hSSTR1. The following applies: TABLE 3; read-out: hSSTR 1 Ki.
A further data set concerns the target hSSTR2 (Homo sapiens, UniProt P30874). The data set can be described thus: Binding at human SRIF receptor subtype hSSTR2. The conditions noted are these: TABLE 3; read-out: hSSTR 2 Ki.
Another data set has as its target hSSTR3 (Homo sapiens, UniProt P32745). The data set can be described thus: Binding at human SRIF receptor subtype hSSTR3. The following applies: TABLE 3; read-out: hSSTR 3 Ki.
The next data set addresses hSSTR4 (Homo sapiens, UniProt P31391). The data set can be described thus: Binding at human SRIF receptor subtype hSSTR4. The conditions noted are these: TABLE 3; read-out: hSSTR 4 Ki.
Another data set deals with hSSTR5 (Homo sapiens, UniProt P35346). The data set can be described thus: Binding at human SRIF receptor subtype hSSTR5. The following applies: TABLE 3; read-out: hSSTR 5 Ki.
Another data set deals with five hSSTRs. Briefly: Profile / average over the five human SRIF receptor subtypes. It counts as binding.
In data set [5] the test system is SRIF receptors on AtT-20 cells. The conditions noted are these: read-out: IC50 at somatostatin receptors of AtT-20 cells; Nicolaou and Hirschmann, ESCOM 1990; cited from earlier work.
The test system of data set [6] is β2-adrenergic receptor. The following applies: cited from earlier work.
The target of the next data set is NK-1 receptor (Homo sapiens, UniProt P25103). The following applies: cited from earlier work.
Data set [7] has as its system SRIF receptor. Briefly: Displacement of 125I-CGP-23996 from SRIF receptor on AtT-20 cells (Example 13). The following applies: for IC50: displacement of 125I-CGP-23996, AtT-20 cells (Example 13), read-out: IC50. The class given is binding, mouse. In general terms: Loss of bound radioactivity is the signal in a displacement assay; it reports binding, not function.
The test system of a further data set is β-Adrenergic receptor. The data set can be described thus: Displacement of 125I-CYP from β-adrenergic receptor, AtT-20. It counts as binding, mouse.
Data set [8] concerns the target SRIF receptor. The following applies: radioligand 125I-CGP-23996; read-out: IC50 when 125I-CGP-23996 was the radioligand; cited from earlier work.
The subject of data set [9] is SRIF receptors present on AtT-20 cells. The following applies: radioligand 125I-Tyr11-SRIF; read-out: IC50 against 125I-Tyr11-SRIF; cited from earlier work.

Read-outs that look alike come from different tables or passages of the source.

T1 sequence (P25103 whole entry): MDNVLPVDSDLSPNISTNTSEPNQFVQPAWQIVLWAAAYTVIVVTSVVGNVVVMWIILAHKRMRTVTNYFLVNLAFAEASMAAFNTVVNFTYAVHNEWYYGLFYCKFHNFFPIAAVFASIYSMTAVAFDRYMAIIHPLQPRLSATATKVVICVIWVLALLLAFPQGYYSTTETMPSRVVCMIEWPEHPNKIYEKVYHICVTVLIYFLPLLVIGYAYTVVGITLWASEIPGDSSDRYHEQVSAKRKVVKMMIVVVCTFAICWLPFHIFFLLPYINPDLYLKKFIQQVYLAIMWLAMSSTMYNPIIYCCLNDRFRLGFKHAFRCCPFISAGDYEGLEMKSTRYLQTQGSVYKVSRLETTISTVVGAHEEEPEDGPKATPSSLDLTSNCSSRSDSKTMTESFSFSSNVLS
Sequence of NK-1 receptor (P25103 whole entry): as above
Sequence of hSSTR1 (P30872 whole entry): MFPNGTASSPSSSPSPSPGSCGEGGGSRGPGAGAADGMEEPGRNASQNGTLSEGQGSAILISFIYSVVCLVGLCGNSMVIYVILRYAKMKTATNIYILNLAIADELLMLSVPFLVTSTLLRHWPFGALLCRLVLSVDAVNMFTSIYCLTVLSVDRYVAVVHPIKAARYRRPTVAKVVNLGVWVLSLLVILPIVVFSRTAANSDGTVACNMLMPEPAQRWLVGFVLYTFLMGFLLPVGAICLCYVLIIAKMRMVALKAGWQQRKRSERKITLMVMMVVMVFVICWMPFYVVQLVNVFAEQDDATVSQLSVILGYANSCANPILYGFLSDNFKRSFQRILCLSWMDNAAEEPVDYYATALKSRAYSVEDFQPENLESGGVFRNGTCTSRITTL
Sequence of hSSTR4 (P31391 whole entry): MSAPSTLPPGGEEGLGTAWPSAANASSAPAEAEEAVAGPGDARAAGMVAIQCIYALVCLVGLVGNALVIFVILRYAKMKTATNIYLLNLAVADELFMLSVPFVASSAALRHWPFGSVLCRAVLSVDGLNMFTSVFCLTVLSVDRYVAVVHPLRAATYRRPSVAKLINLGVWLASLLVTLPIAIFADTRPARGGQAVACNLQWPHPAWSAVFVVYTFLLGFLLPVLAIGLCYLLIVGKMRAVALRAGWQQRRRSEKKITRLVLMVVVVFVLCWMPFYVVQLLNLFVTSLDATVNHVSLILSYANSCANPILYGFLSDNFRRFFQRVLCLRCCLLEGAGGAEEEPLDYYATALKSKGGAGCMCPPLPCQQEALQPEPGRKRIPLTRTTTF
Sequence of hSSTR3 (P32745 whole entry): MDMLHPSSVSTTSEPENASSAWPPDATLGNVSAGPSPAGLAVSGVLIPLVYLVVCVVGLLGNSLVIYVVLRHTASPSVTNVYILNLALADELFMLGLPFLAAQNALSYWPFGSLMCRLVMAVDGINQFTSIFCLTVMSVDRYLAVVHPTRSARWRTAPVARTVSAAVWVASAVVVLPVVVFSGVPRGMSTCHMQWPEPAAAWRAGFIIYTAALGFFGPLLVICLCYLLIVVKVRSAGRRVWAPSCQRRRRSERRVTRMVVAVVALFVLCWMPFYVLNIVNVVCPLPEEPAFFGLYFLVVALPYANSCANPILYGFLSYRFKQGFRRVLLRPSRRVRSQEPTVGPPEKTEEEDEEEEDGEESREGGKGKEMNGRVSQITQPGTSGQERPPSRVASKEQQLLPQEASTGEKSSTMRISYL
Sequence of hSSTR2 (P30874 whole entry): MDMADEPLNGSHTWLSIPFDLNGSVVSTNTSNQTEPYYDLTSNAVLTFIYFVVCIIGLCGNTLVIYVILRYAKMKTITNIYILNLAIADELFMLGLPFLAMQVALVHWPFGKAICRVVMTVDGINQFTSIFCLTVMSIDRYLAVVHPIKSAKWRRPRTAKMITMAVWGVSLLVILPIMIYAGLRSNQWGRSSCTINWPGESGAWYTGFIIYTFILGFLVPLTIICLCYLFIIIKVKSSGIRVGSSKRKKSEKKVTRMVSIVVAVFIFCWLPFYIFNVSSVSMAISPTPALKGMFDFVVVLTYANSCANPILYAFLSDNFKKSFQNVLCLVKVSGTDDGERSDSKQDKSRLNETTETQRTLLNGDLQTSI
Sequence of hSSTR5 (P35346 whole entry): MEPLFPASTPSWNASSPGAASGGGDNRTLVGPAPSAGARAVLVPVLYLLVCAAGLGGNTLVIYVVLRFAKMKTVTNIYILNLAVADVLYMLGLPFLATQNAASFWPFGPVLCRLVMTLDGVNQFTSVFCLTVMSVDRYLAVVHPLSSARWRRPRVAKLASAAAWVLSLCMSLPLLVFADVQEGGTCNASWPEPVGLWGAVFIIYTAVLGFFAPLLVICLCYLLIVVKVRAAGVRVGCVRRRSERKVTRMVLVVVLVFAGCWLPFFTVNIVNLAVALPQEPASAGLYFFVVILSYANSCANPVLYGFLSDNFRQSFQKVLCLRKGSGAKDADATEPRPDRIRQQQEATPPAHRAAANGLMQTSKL

The compound `CC(=O)NCCCCCOC[C@H]1O[C@@H](OCCc2c[nH]c3ccccc23)[C@H](OCc2ccccc2)[C@@H](OCc2ccccc2)[C@@H]1OCc1ccccc1` [III-4d] came in with an IC50 in data set [1] of 0.056 µM. The “activity / affinity at SRIF receptors of AtT-20 cells” value in data set [2] is “inactive”. Moreover, the “binding of the SRIF receptors” value in [2] (among some sixty-five receptors) is recorded as “did not bind”. The “binding of the β2-adrenergic receptors” value in the data set on β2-adrenergic receptor [3] is reported as “did not bind”. For the same compound, the “binding of some sixty-five other receptors” value in [4] is “did not bind some sixty-five other receptors”.

In general, Ki refers to the dissociation constant of the complex between target and ligand, obtained from inhibition or displacement. For the compound `NCCCCCOC[C@H]1O[C@@H](OCCc2c[nH]c3ccccc23)[C@H](OCc2ccccc2)C[C@@H]1OCc1ccccc1` [III-5a, 2-(1H-Indol-3-yl)ethyl 2,4-Di-O-benzyl-3-deoxy-6-O-(5-aminopentyl)-β-D-glucopyranoside], the IC50 in [2] (TABLE 1 (Example 105), read-out: AtT-20 cells 50 IC) is 8.4 µM; in data set [2] (TABLE 3 (Example 108), read-out: AtT-20 IC50), 8.4 µM; in [5], around 10 µM. Further, the Ki on hSSTR1 was determined as 4.1 µM; on hSSTR2, 3.1 µM; at hSSTR3, 3.3 µM; on hSSTR4 it was 1.7 µM; at hSSTR5 it was 5.1 µM. The “hSSTR subtype affinity profile” value with five hSSTRs was “high affinities for hSSTR2 and hSSTR4 and a low affinity for SSTR1”. The “binding / antagonism at the β2-adrenergic receptor” value in the data set with β2-adrenergic receptor [6] is given as “bind the β2 -adrenergic receptor as antagonists”. For the same compound, the “binding / antagonism at the NK-1 receptor” value on NK-1 receptor was “potent antagonist ligands”.

As usually defined, the Inhibition is the change of the read-out against control, counted positive when it falls. `CO[C@@H]1O[C@H](COCCCCCN)[C@@H](OCc2ccccc2)[C@H](OCc2ccccc2)[C@H]1OCc1ccccc1` [Methyl 6-O-(5-aminopentyl)-2,3,4-tri-O-benzyl-β-D-glucopyranoside]: in the data set on SRIF receptor [7], the “binding by the SRIF receptor” value is “is bound by the substance P and SRIF receptors”; the IC50 was determined as 40 µM. In data set [1], the “binding by the substance P receptor” value is “is bound by the substance P and SRIF receptors”; the IC50 stood at 0.4 µM. Besides, the “binding of the β-adrenergic receptor” value with β-Adrenergic receptor was “does not bind the β-adrenergic receptor”. Moreover, the Inhibition in the data set with β-Adrenergic receptor (125I-CYP (0.1 nM), AtT-20) was found to be 0%.

With somatostatin [SRIF, reference compound], the IC50 with SRIF receptor [7] is 0.0093 µM; at SRIF receptor [8], 0.0093 µM; in data set [5], around 0.0093 µM; in data set [9], 0.00083 µM. Moreover, in the data set on five hSSTRs, the “hSSTR subtype affinity profile” value was “decreases in the order SSTR2>>SSTR1>SSTR3>SSTR4 and SSTR5”. The “binding / antagonism at the β2-adrenergic receptor” value in the data set with β2-adrenergic receptor [6] is on record as “do not bind”. Also, the “binding / antagonism at the NK-1 receptor” value in the data set with NK-1 receptor is “do not bind”.

These data come from US6197963A, “Non-peptide peptidomimetics” (The Trustees of the University of Pennsylvania, priority 1998, dated 2001).
